The values below come from patent publication US20250353891A1 (MEDIMMUNE LIMITED, priority 2022, published 2025).

Assay [1] addresses human GLP-1 receptor (hGLP-1R) (Homo sapiens, UniProt P43220). Nature of the assay: cAMP production (HTRF) in CHO cells expressing hGLP-1R. To be noted: for EC50: Table 6, peptides modified at position 17, cAMP in CHO hGLP-1R cells, geometric mean, read-out: hGLP-1R EC50; for % Relative Potency Ratio: Table 6, % GLP-1R activity relative to GLP-1 / % GlucR activity relative to glucagon. The arrangement: expressed in transfected cells. It counts as cell-based. The gist of the method: (§1)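 Potency values represent EC50 from 4-parameter logistic curves of HTRF % Delta F signal. Receptor-expressing CHO cells (hGCGR 2×10^5 cells/mL, hGLP-1R 1×10^5 cells/mL) were exposed for 30 min at room temperature before two-step cAMP detection.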

Assay [2] concerns the target human glucagon receptor (hGCGR) (Homo sapiens, UniProt P47871). Nature of the assay: cAMP production (HTRF) in CHO cells expressing hGCGR. The assay is classed as cell-based. Details: expressed in transfected cells. To be noted: Table 6, peptides modified at position 17; cAMP in CHO hGCGR cells; geometric mean; read-out: hGluc-R EC50. The gist of the method: as §1

Each structure is given as a SMILES string. Starred links: 1 amine or outer side, 2 acyl side, 3 side chain; linkers in the order of their positions; H or OH if unused. Non-standard residues stand in square brackets, D forms with d. Residues, ends and D or L forms follow the SMILES beside them. Groups on a side chain read outwards from the residue. *: point of attachment. γGlu = O=C(O)[C@H](CCC(=O)[*:2])N[*:1]; Stearoyl = CCCCCCCCCCCCCCCCCC(=O)*; Palmitoyl = CCCCCCCCCCCCCCCC(=O)*; αMeF = C[C@](N)(Cc1ccccc1)C(=O)O; Myristoyl = CCCCCCCCCCCCCC(=O)*; αMeS = C[C@](N)(CO)C(=O)O; PEG2 = NCCOCCOCCC(=O)O; Aib = CC(C)(N)C(=O)O

Chain of human glucagon receptor (hGCGR) (P47871 26-477): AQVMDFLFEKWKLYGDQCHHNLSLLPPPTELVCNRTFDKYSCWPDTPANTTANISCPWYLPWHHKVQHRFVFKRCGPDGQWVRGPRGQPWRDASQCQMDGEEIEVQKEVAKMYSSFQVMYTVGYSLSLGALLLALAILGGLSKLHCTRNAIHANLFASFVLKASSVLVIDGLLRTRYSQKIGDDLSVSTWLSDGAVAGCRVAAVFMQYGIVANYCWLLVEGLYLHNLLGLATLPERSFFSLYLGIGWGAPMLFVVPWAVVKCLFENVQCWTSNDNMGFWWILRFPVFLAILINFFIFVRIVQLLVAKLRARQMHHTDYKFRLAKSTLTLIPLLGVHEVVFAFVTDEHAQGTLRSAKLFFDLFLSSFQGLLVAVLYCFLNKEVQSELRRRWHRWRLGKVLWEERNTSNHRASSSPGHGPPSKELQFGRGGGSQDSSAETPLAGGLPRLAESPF
Chain of human GLP-1 receptor (hGLP-1R) (P43220 24-463): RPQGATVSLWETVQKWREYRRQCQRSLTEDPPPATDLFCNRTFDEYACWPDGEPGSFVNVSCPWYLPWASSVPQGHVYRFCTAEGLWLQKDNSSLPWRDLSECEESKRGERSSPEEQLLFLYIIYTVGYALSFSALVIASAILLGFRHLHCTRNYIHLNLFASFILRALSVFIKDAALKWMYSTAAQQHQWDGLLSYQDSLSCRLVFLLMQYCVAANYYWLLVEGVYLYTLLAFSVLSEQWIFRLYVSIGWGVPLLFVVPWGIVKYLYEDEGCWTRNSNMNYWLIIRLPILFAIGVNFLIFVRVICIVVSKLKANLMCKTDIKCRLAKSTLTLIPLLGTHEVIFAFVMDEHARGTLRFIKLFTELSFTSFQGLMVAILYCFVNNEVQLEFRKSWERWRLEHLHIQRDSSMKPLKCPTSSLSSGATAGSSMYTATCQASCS

For `CCCCCCCCCCCCCCCCCC(=O)N[C@@H](CCC(=O)N[C@@H](CCC(=O)NCCOCCOCCC(=O)NCCOCCOCCC(=O)NCCCC[C@H](NC(=O)[C@H](CO)NC(=O)[C@H](CC(=O)O)NC(=O)[C@H](CC(C)C)NC(=O)[C@@H](NC(=O)[C@H](CCCCN)NC(=O)[C@H](CO)NC(=O)[C@@H](NC(=O)[C@H](CC(=O)O)NC(=O)[C@H](CO)NC(=O)[C@@H](NC(=O)[C@](C)(Cc1ccccc1)NC(=O)[C@H](CO)NC(=O)CNC(=O)[C@H](CCC(N)=O)NC(=O)C(C)(C)NC(=O)[C@@H](N)Cc1c[nH]cn1)[C@@H](C)O)C(C)C)[C@@H](C)CC)C(=O)N[C@@H](C)C(=O)N[C@@H](C)C(=O)N[C@@H](CCC(N)=O)C(=O)N[C@@H](CC(=O)O)C(=O)N[C@@](C)(Cc1ccccc1)C(=O)N[C@H](C(=O)N[C@@H](CCC(N)=O)C(=O)NC(C)(C)C(=O)N[C@H](C(=O)N[C@H](C(=O)N[C@@H](CC(N)=O)C(=O)N[C@H](C(N)=O)[C@@H](C)O)[C@@H](C)CC)[C@@H](C)CC)C(C)C)C(=O)O)C(=O)O` [Peptide 124] (H-H[Aib]QGS[αMeF]TSDVSKILDSK([PEG2-PEG2-γGlu-γGlu-Stearoyl])AAQD[αMeF]VQ[Aib]IINT-NH2; N-terminus assumed), in assay [1], the EC50 (commonly the concentration that produces a half-maximal response) came to 1.27 pM and the “% Relative Potency Ratio” value turned out to be 15.2. Besides, the EC50 in assay [2] came to 9.79 pM.

With `CCCCCCCCCCCCCCCC(=O)N[C@@H](CCC(=O)N[C@@H](CCC(=O)NCCOCCOCCC(=O)NCCOCCOCCC(=O)NCCCC[C@H](NC(=O)[C@H](CO)NC(=O)[C@H](CC(=O)O)NC(=O)[C@H](CC(C)C)NC(=O)[C@@H](NC(=O)[C@H](CCCCN)NC(=O)[C@H](CO)NC(=O)[C@@H](NC(=O)[C@H](CC(=O)O)NC(=O)[C@H](CO)NC(=O)[C@@H](NC(=O)[C@](C)(Cc1ccccc1)NC(=O)[C@H](CO)NC(=O)CNC(=O)[C@H](CCC(N)=O)NC(=O)C(C)(C)NC(=O)[C@@H](N)Cc1c[nH]cn1)[C@@H](C)O)C(C)C)[C@@H](C)CC)C(=O)N[C@@H](C)C(=O)N[C@@H](C)C(=O)N[C@@H](CCC(N)=O)C(=O)N[C@@H](CC(=O)O)C(=O)N[C@@](C)(Cc1ccccc1)C(=O)N[C@H](C(=O)N[C@@H](CCC(N)=O)C(=O)NC(C)(C)C(=O)N[C@H](C(=O)N[C@H](C(=O)N[C@@H](CC(N)=O)C(=O)N[C@H](C(N)=O)[C@@H](C)O)[C@@H](C)CC)[C@@H](C)CC)C(C)C)C(=O)O)C(=O)O` [Peptide 125] (H-H[Aib]QGS[αMeF]TSDVSKILDSK([PEG2-PEG2-γGlu-γGlu-Palmitoyl])AAQD[αMeF]VQ[Aib]IINT-NH2; N-terminus assumed), in assay [1], the “% Relative Potency Ratio” value came out at 23.0. Moreover, in assay [2], the EC50 turned out to be 6.68 pM.

`CCCCCCCCCCCCCCCCCC(=O)N[C@@H](CCC(=O)NCCOCCOCCC(=O)NCCOCCOCCC(=O)NCCCC[C@H](NC(=O)[C@H](CO)NC(=O)[C@H](CC(=O)O)NC(=O)[C@H](CC(C)C)NC(=O)[C@@H](NC(=O)[C@H](CCCCN)NC(=O)[C@H](CO)NC(=O)[C@@H](NC(=O)[C@H](CC(=O)O)NC(=O)[C@H](CO)NC(=O)[C@@H](NC(=O)[C@](C)(Cc1ccccc1)NC(=O)[C@H](CO)NC(=O)CNC(=O)[C@H](CCC(N)=O)NC(=O)C(C)(C)NC(=O)[C@@H](N)Cc1c[nH]cn1)[C@@H](C)O)C(C)C)[C@@H](C)CC)C(=O)N[C@@H](C)C(=O)N[C@@H](C)C(=O)N[C@@H](CCC(N)=O)C(=O)N[C@@H](CC(=O)O)C(=O)N[C@@](C)(Cc1ccccc1)C(=O)N[C@H](C(=O)N[C@@H](CCC(N)=O)C(=O)NC(C)(C)C(=O)N[C@H](C(=O)N[C@H](C(=O)N[C@@H](CC(N)=O)C(=O)N[C@H](C(N)=O)[C@@H](C)O)[C@@H](C)CC)[C@@H](C)CC)C(C)C)C(=O)O` [Peptide 127] (H-H[Aib]QGS[αMeF]TSDVSKILDSK([PEG2-PEG2-γGlu-Stearoyl])AAQD[αMeF]VQ[Aib]IINT-NH2; N-terminus assumed): the “% Relative Potency Ratio” value in assay [1] stood at 25.1. Further, the EC50 in assay [2] is 12.6 pM.

Turning to `CCCCCCCCCCCCCCCC(=O)N[C@@H](CCC(=O)NCCOCCOCCC(=O)NCCOCCOCCC(=O)NCCCC[C@H](NC(=O)[C@H](CO)NC(=O)[C@H](CC(=O)O)NC(=O)[C@H](CC(C)C)NC(=O)[C@@H](NC(=O)[C@H](CCCCN)NC(=O)[C@H](CO)NC(=O)[C@@H](NC(=O)[C@H](CC(=O)O)NC(=O)[C@H](CO)NC(=O)[C@@H](NC(=O)[C@](C)(Cc1ccccc1)NC(=O)[C@H](CO)NC(=O)CNC(=O)[C@H](CCC(N)=O)NC(=O)C(C)(C)NC(=O)[C@@H](N)Cc1c[nH]cn1)[C@@H](C)O)C(C)C)[C@@H](C)CC)C(=O)N[C@@H](C)C(=O)N[C@@H](C)C(=O)N[C@@H](CCC(N)=O)C(=O)N[C@@H](CC(=O)O)C(=O)N[C@@](C)(Cc1ccccc1)C(=O)N[C@H](C(=O)N[C@@H](CCC(N)=O)C(=O)NC(C)(C)C(=O)N[C@H](C(=O)N[C@H](C(=O)N[C@@H](CC(N)=O)C(=O)N[C@H](C(N)=O)[C@@H](C)O)[C@@H](C)CC)[C@@H](C)CC)C(C)C)C(=O)O` [Peptide 128] (H-H[Aib]QGS[αMeF]TSDVSKILDSK([PEG2-PEG2-γGlu-Palmitoyl])AAQD[αMeF]VQ[Aib]IINT-NH2; N-terminus assumed), the “% Relative Potency Ratio” value in assay [1] stood at 11.8. Also, in assay [2], the EC50 was determined as 4.69 pM.

Take `CCCCCCCCCCCCCC(=O)N[C@@H](CCC(=O)NCCOCCOCCC(=O)NCCOCCOCCC(=O)NCCCC[C@H](NC(=O)[C@H](CO)NC(=O)[C@H](CC(=O)O)NC(=O)[C@H](CC(C)C)NC(=O)[C@@H](NC(=O)[C@H](CCCCN)NC(=O)[C@H](CO)NC(=O)[C@@H](NC(=O)[C@H](CC(=O)O)NC(=O)[C@H](CO)NC(=O)[C@@H](NC(=O)[C@](C)(Cc1ccccc1)NC(=O)[C@H](CO)NC(=O)CNC(=O)[C@H](CCC(N)=O)NC(=O)C(C)(C)NC(=O)[C@@H](N)Cc1c[nH]cn1)[C@@H](C)O)C(C)C)[C@@H](C)CC)C(=O)N[C@@H](C)C(=O)N[C@@H](C)C(=O)N[C@@H](CCC(N)=O)C(=O)N[C@@H](CC(=O)O)C(=O)N[C@@](C)(Cc1ccccc1)C(=O)N[C@H](C(=O)N[C@@H](CCC(N)=O)C(=O)NC(C)(C)C(=O)N[C@H](C(=O)N[C@H](C(=O)N[C@@H](CC(N)=O)C(=O)N[C@H](C(N)=O)[C@@H](C)O)[C@@H](C)CC)[C@@H](C)CC)C(C)C)C(=O)O` [Peptide 129] (H-H[Aib]QGS[αMeF]TSDVSKILDSK([PEG2-PEG2-γGlu-Myristoyl])AAQD[αMeF]VQ[Aib]IINT-NH2): the “% Relative Potency Ratio” value in assay [1] is reported as 17.6. Also, the EC50 in assay [2] stood at 4.1 pM.

Consider `CCCCCCCCCCCCCCCCCC(=O)N[C@@H](CCC(=O)N[C@@H](CCC(=O)NCCOCCOCCC(=O)NCCOCCOCCC(=O)NCCCC[C@H](NC(=O)[C@H](CO)NC(=O)[C@H](CC(=O)O)NC(=O)[C@H](CC(C)C)NC(=O)[C@@H](NC(=O)[C@H](CCCCN)NC(=O)[C@H](CO)NC(=O)[C@@H](NC(=O)[C@H](CC(=O)O)NC(=O)[C@H](CO)NC(=O)[C@@H](NC(=O)[C@](C)(Cc1ccccc1)NC(=O)[C@H](CO)NC(=O)CNC(=O)[C@H](CCC(N)=O)NC(=O)[C@](C)(CO)NC(=O)[C@@H](N)Cc1c[nH]cn1)[C@@H](C)O)C(C)C)[C@@H](C)CC)C(=O)N[C@@H](C)C(=O)N[C@@H](C)C(=O)N[C@@H](CCC(N)=O)C(=O)N[C@@H](CC(=O)O)C(=O)N[C@@](C)(Cc1ccccc1)C(=O)N[C@H](C(=O)N[C@@H](CCC(N)=O)C(=O)NC(C)(C)C(=O)N[C@H](C(=O)N[C@H](C(=O)N[C@@H](CC(N)=O)C(=O)N[C@H](C(N)=O)[C@@H](C)O)[C@@H](C)CC)[C@@H](C)CC)C(C)C)C(=O)O)C(=O)O` [Peptide 130] (H-H[αMeS]QGS[αMeF]TSDVSKILDSK([PEG2-PEG2-γGlu-γGlu-Stearoyl])AAQD[αMeF]VQ[Aib]IINT-NH2; N-terminus assumed), for which, in assay [1], the EC50 turned out to be 1.09 pM and the “% Relative Potency Ratio” value worked out at 59.9. Also, in assay [2], the EC50 worked out at 32.9 pM.
